Measurements as given in patent publication US8530663B2, “1-(2-phenoxymethylheteroaryl)piperidine and piperazine compounds” (Theravance, Inc., priority 2010, dated 2013).
Marks after values point to notes of the source that are not given here.

Key:
hSERT [1] = target: T1, hSERT (Homo sapiens, UniProt P31645); assay: hSERT membrane radioligand binding assay (3H-citalopram); conditions: hSERT membranes, 1.0 nM 3H-citalopram; for Ki: read-out: SERT pKi (converted)
T1 construct: expressed in transfected cells; host or cells: HEK-293
T1 sequence (P31645 whole entry): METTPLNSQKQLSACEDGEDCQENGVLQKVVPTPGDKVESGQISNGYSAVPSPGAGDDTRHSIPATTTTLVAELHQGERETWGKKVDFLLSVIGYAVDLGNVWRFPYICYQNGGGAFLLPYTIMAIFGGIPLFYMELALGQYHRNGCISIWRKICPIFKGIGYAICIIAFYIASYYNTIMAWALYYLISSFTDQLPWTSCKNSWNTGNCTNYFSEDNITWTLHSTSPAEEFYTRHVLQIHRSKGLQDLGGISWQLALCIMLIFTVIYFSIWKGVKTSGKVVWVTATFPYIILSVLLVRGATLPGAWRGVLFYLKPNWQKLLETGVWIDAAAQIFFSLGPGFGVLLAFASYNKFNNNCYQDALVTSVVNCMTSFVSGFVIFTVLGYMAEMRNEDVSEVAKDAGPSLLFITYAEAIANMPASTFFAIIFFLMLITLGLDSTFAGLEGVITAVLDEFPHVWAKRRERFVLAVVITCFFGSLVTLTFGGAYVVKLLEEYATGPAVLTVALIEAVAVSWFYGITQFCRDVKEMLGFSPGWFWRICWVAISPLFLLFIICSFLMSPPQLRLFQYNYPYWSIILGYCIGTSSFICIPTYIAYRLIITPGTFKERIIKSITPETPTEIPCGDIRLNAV
Description: (§1) Membrane radioligand binding assays were used to measure inhibition of labeled ligand (^3H-citalopram or ^3H-nisoxetine or ^3H-WIN35428) binding to membranes prepared from cells expressing the respective human recombinant transporter (hSERT or hNET or hDAT) in order to determine the pKi values of test compounds at the transporters.
(§2) Recombinant human embryonic kidney (HEK-293) derived cell lines stably transfected with hSERT or hNET, respectively, were grown in DMEM medium supplemented with 10% dialyzed FBS (for hSERT) or FBS (for hNET), 100 μg/ml penicillin, 100 μg/ml streptomycin, 2 mM L-glutamine and 250 μg/ml of the aminoglycoside antibiotic G418, in a 5% CO2 humidified incubator at 37° C. When cultures reached 80% confluence, the cells were washed thoroughly in PBS (without Ca^2+ and Mg^2+) and lifted with 5 mM EDTA in PBS. Cells were pelleted by centrifugation, resuspended in lysis buffer (10 mM Tris-HCl, pH7.5 containing 1 mM EDTA), homogenized, pelleted by centrifugation, then resuspended in 50 mM Tris-HCl, pH 7.5 and 10% sucrose at 4° C. Protein concentration of the membrane suspension was determined using a Bio-Rad Bradford Protein Assay kit. Membranes were snap frozen and stored at −80° C. Chinese hamster ovary membranes expressing hDAT (CHO-DAT) were purchased from PerkinElmer and stored at −80° C.
(§3) Binding assays were performed in a 96-well assay plate in a total volume of 200 μL assay buffer (50 mM Tris-HCl, 120 mM NaCl, 5 mM KCl, pH 7.4) with 0.5, 1, and 3 μg membrane protein, for SERT, NET and DAT, respectively.
(§4) Stock solutions (10 mM in DMSO) of test compound were prepared and serial dilutions made using Dilution Buffer (50 mM Tris-HCl, 120 mM NaCl, 5 mM KCl, pH 7.4, 0.1% BSA, 400 μM ascorbic acid).
(§5) Following a 60 minute incubation at 22° C. (or a period sufficient to reach equilibrium), the membranes were harvested by rapid filtration over a 96-well UniFilter GF/B plate, pretreated with 0.3% polyethyleneimine, and washed 6 times with 300 μl wash buffer (50 mM Tris-HCl, 0.9% NaCl, pH 7.5 at 4° C.). Plates were dried overnight at room temperature, ˜45 μl of MicroScint™-20 (Perkin Elmer) added and bound radioactivity quantitated via liquid scintillation spectroscopy. Inhibition curves and saturation isotherms were analyzed using GraphPad Prism Software package (GraphPad Software, Inc., San Diego, Calif.). IC50 values were generated from concentration response curves using the Sigmoidal Dose Response (variable slope) algorithm in Prism GraphPad. Kd and Bmax values for the radioligand were generated from saturation isotherms using the Saturation Binding Global Fit algorithm in Prism GraphPad. pKi (negative decadic logarithm of Ki) values for test compounds were calculated from the best-fit IC50 values, and the Kd value of the radioligand, using the Cheng-Prusoff equation (Cheng & Prusoff (1973) Biochem. Pharmacol. 22(23):3099-3108): Ki=IC50/(1+[L]/Kd), where [L]=concentration radioligand.

hNET [2] = target: T2, hNET (Homo sapiens, UniProt P23975); assay: hNET membrane radioligand binding assay (3H-nisoxetine); conditions: hNET membranes, 1.0 nM 3H-nisoxetine; for Ki: read-out: NET pKi (converted)
T2 construct: expressed in transfected cells; host or cells: HEK-293
T2 sequence (P23975 whole entry): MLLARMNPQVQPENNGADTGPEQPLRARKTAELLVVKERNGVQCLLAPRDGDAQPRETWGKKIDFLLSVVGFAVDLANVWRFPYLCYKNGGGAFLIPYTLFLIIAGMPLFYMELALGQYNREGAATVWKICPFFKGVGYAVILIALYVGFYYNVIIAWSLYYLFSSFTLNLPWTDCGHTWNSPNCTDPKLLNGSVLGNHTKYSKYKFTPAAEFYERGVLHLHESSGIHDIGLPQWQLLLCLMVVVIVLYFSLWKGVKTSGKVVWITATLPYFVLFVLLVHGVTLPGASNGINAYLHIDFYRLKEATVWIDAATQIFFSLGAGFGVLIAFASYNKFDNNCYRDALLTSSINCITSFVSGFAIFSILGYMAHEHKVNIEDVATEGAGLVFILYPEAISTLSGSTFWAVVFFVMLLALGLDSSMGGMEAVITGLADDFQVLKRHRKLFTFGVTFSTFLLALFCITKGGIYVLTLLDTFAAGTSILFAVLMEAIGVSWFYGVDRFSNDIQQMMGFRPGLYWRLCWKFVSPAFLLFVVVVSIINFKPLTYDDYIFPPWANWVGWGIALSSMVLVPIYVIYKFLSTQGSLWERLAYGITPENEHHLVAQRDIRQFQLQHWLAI
Description: as §1, §2, §3, §4, §5

hSERT [3] = target: T1, hSERT; assay: fluorescence-based serotonin reuptake assay (Tsuruda et al. 2010; data with asterisk); assay type: cell-based; conditions: serotonin reuptake inhibition, fluorescence-based assay (data indicated by an asterisk); for IC50: read-out: SERT pIC50 (converted)
hNET [4] = target: T2, hNET; assay: fluorescence-based norepinephrine reuptake assay (Tsuruda et al. 2010; data with asterisk); assay type: cell-based; conditions: norepinephrine reuptake inhibition, fluorescence-based assay (data indicated by an asterisk); for IC50: read-out: NET pIC50 (converted)

SMILES	SERT pKi (hSERT [1])	NET pKi (hNET [2])	further results
Clc1cccc(OCc2cscc2C2CCNCC2)c1 [Example 28-2]	≧7.0	≧6.0	
Fc1cccc(F)c1OCc1ccoc1C1CCNCC1 [Example 22-2]			SERT pIC50 (hSERT [3]): ≧5.0*; NET pIC50 (hNET [4]): ≧6.0*
Fc1ccccc1OCc1cscc1C1CCNCC1 [Example 28-1]	≧7.0	≧7.0	
Fc1cccc(F)c1OCc1ncccc1C1CCNCC1 [Example 2-4]	≧6.0	≧7.0	
Fc1cccc(Cl)c1OCc1sccc1C1CCNCC1 [Example 25-3]	≧7.0	≧5.0	
Fc1cccc(F)c1OCc1cccnc1C1CCNCC1 [Example 14-4]	≧6.0	≧7.0	
Clc1cccc(Cl)c1OCc1cnccc1C1CCNCC1 [Example 6-5]	≧7.0	≧7.0	
Clc1cccc(OCc2cnccc2C2CCNCC2)c1 [Example 6-3]	≧7.0	≧5.0	
c1ccc(OCc2ccoc2C2CCNCC2)cc1 [Example 22-1]			SERT pIC50 (hSERT [3]): ≧6.0*; NET pIC50 (hNET [4]): ≧7.0*
Fc1ccc(F)c(OCc2ncccc2C2CCNCC2)c1F [Example 2-7]	≧7.0	≧6.0	
Clc1cccc(OCc2cccnc2C2CCNCC2)c1 [Example 14-3]	≧7.0	≧5.0	
Fc1cc(F)c(OCc2ccsc2C2CCNCC2)c(F)c1 [Example 31-3]	≧7.0	≧7.0	SERT pIC50 (hSERT [3]): ≧7.0*; NET pIC50 (hNET [4]): ≧7.0*
Fc1cccc(Cl)c1OCc1cccnc1C1CCNCC1 [Example 14-5]	≧7.0	≧7.0	
Clc1cccc(Cl)c1OCc1sccc1C1CCNCC1 [Example 25-1]	≧7.0	≧5.0	
Fc1cccc(Cl)c1OCc1ncccc1C1CCNCC1 [Example 2-5]	≧7.0	≧7.0	
Fc1cccc(Cl)c1OCc1cnccc1C1CCNCC1 [Example 6-4]	≧7.0	≧7.0	
Fc1ccccc1OCc1cnccc1C1CCNCC1 [Example 6-2]	≧7.0	≧6.0	
Fc1cccc(F)c1OCc1cnccc1C1CCNCC1 [Example 5, 3′-(2,6-Difluorophenoxymethyl)-1,2,3,4,5,6-hexahydro[4,4′]bipyridinyl]			Ki (hSERT [1]): ≤ 100 nM; Ki (hNET [2]): ≤ 100 nM
Fc1cc(Cl)cc(F)c1OCc1ncccc1C1CCNCC1 [Example 2-8]	≧7.0	≧6.0	
Fc1cc(Cl)cc(F)c1OCc1cscc1C1CCNCC1 [Example 28-4]	≧7.0	≧7.0	
Fc1ccccc1OCc1ccncc1C1CCNCC1 [Example 10-2]	≧7.0	≧7.0	
Clc1cccc(OCc2ccncc2C2CCNCC2)c1 [Example 10-6]	≧7.0	≧6.0	
Clc1cccc(Cl)c1OCc1occc1C1CCNCC1 [Example 18-1]			SERT pIC50 (hSERT [3]): ≧7.0*; NET pIC50 (hNET [4]): ≧4.5*
Fc1ccccc1OCc1ncccc1C1CCNCC1 [Example 2-2]	≧6.0	≧7.0	
Fc1ccc(F)c(OCc2cnccc2C2CCNCC2)c1Cl [Example 6-9]	≧7.0	≧7.0	
Fc1cccc(F)c1OCc1sccc1C1CCNCC1 [Example 25-2]	≧6.0	≧6.0	
Fc1ccc(F)c(OCc2sccc2C2CCNCC2)c1F [Example 25-4]	≧6.0	≧6.0	

SMILES	SERT pKi (hSERT [1])	NET pKi (hNET [2])	further results
Fc1ccc(F)c(OCc2ccncc2C2CCNCC2)c1Cl [Example 10-9]	≧7.0	≧7.0	
Fc1ccc(F)c(OCc2cccnc2C2CCNCC2)c1F [Example 14-7]	≧7.0	≧7.0	
Fc1ccccc1OCc1cccnc1C1CCNCC1 [Example 14-2]	≧6.0	≧7.0	
c1ccc(OCc2occc2C2CCNCC2)cc1 [Example 17, 4-(2-Phenoxymethylfuran-3-yl)piperidine]			IC50 (hSERT [3]): ≤ 100 nM; IC50 (hNET [4]): ≤ 100 nM
Clc1cccc(Cl)c1OCc1ncccc1C1CCNCC1 [Example 2-6]	≧7.0	≧7.0	
Clc1cccc(Cl)c1OCc1ccncc1C1CCNCC1 [Example 10-5]	≧7.0	≧7.0	
Fc1cc(F)c(OCc2cnccc2C2CCNCC2)c(F)c1 [Example 6-7]	≧7.0	≧7.0	
Fc1cc(Cl)cc(F)c1OCc1ccncc1C1CCNCC1 [Example 10-8]	≧7.0	≧7.0	
c1ccc(OCc2ccsc2C2CCNCC2)cc1 [Example 30, 4-(3-Phenoxymethylthiophen-2-yl)piperidine]			Ki (hSERT [1]): ≤ 100 nM; Ki (hNET [2]): ≤ 100 nM
c1ccc(OCc2cnccc2C2CCNCC2)cc1 [Example 6-1]	≧6.0	≧5.0	
Fc1cccc(F)c1OCc1occc1C1CCNCC1 [Example 18-3]			SERT pIC50 (hSERT [3]): ≧6.0*; NET pIC50 (hNET [4]): ≧5.0*
c1ccc(OCc2ncccc2C2CCNCC2)cc1 [Example 2-1]	≧5.0	≧6.0	
c1ccc(OCc2ccncc2C2CCNCC2)cc1 [Example 10-1]	≧6.0	≧6.0	
Clc1cccc(OCc2ncccc2C2CCNCC2)c1 [Example 2-3]	≧7.0	≧5.0	
Fc1ccc(F)c(OCc2ccncc2C2CCNCC2)c1F [Example 10-7]	≧7.0	≧7.0	
Fc1cccc(F)c1OCc1ccncc1C1CCNCC1 [Example 10-3]	≧7.0	≧7.0	
Fc1ccccc1OCc1ccsc1C1CCNCC1 [Example 31-1]	≧6.0	≧7.0	
Fc1cc(F)c(OCc2ncccc2C2CCNCC2)c(F)c1 [Example 1, 2-(2,4,6-Trifluorophenoxymethyl)-1′,2′,3′,4′,5′,6′-hexahydro[3,4]bipyridinyl]			Ki (hSERT [1]): ≤ 100 nM; Ki (hNET [2]): ≤ 100 nM
Clc1cccc(Cl)c1OCc1cccnc1C1CCNCC1 [Example 14-6]	≧7.0	≧7.0	
Clc1cccc(OCc2occc2C2CCNCC2)c1 [Example 18-2]			SERT pIC50 (hSERT [3]): ≧7.0*; NET pIC50 (hNET [4]): ≧7.0*
Fc1cc(Cl)cc(F)c1OCc1cnccc1C1CCNCC1 [Example 6-8]	≧7.0	≧6.0	
Fc1cc(Cl)cc(F)c1OCc1ccsc1C1CCNCC1 [Example 31-4]	≧7.0	≧7.0	
Fc1ccc(F)c(OCc2cnccc2C2CCNCC2)c1F [Example 6-6]	≧7.0	≧6.0	
Fc1ccc(F)c(OCc2cscc2C2CCNCC2)c1Cl [Example 28-5]	≧7.0	≧7.0	
c1ccc(OCc2cccnc2C2CCNCC2)cc1 [Example 14-1]	≧6.0	≧6.0	
Clc1cccc(OCc2ccoc2C2CCNCC2)c1 [Example 21, 4-[3-(3-Chlorophenoxymethyl)furan-2-yl]piperidine]			IC50 (hSERT [3]): ≤ 100 nM; IC50 (hNET [4]): ≤ 100 nM
Fc1cc(Cl)cc(F)c1OCc1cccnc1C1CCNCC1 [Example 14-8]	≧7.0	≧7.0	
